For test [1], the system named is patients with genotype-confirmed hoFH. Particulars: ezetimibe 10 mg/day added to maximal dose of statins; cited from earlier work.
The subject of test [2] is patients with an elevated LDL-C (≧100 mg/dL or 2.59 mmol/L) treated with a stable dose of atorvastatin 10 mg. The experiment in a line: Study 2: randomized, double-blind, placebo-controlled 8-week study of 316P 150 mg E2W with atorvastatin 10 mg or 80 mg. Particulars: placebo+atorvastatin 80 mg group, previously on atorvastatin 10 mg. The class given is in vivo, human. On the procedure: This was a randomized, double-blind, 3-parallel-groups, placebo-controlled, fixed dose/dose regimen, multicenter, 8-week study in subjects with primary hypercholesterolemia, aged 18-75 years. One aim of this study was to assess the efficacy and safety of 316P in patients with an elevated LDL-C (≧100 mg/dL or 2.59 mmol/L) treated with a stable dose of atorvastatin 10 mg.
During the screening period, patients had to be stabilized to atorvastatin 10 mg for at least 6 weeks, if they are not already. Then, after 1 additional screening week, patients were centrally randomized via IVRS/IWRS in a 1:1:1 ratio to one of the 3 treatment groups (placebo for 316P+atorvastatin 80 mg, 316P 150 mg E2W+atorvastatin 80 mg, 316P 150 mg E2W+atorvastatin 10 mg) and treated in a double-blind manner for approximately 8 weeks. 316P was administered every 2 weeks on site trough subcutaneous injection and atorvastatin was administered orally once daily in the evening at home. The double-blind treatment period was then followed by an 8-week follow-up period.
Inclusion criteria: • Patients (patients receiving a lipid lowering treatment other than atorvastatin/or not at stable dose of atorvastatin 10 mg for at least 6 weeks prior to screening period, or drug naive patients) with primary hypercholesterolemia likely to have low-density lipoprotein cholesterol (LDL-C)≧100 mg/dL (≧2.59 mmol/L) at the end of the run-in period on atorvastatin therapy (Week-1). • OR • Patients with primary hypercholesterolemia treated with stable dose of atorvastatin 10 mg for at least 6 weeks prior to screening period and likely to have low-density lipoprotein cholesterol (LDL-C)≧100 mg/dL (≧2.59 mmol/L) at the screening visit (Week-1).
Duration of Study Period Per Subject:
• Arm 1: The first group of patients receives one subcutaneous injection of 1 mL of antibody 316P, administered in the abdomen every two weeks, with a dose regimen at 150 mg, for a double-blind treatment period of 8 weeks; • Atorvastatin is administered once per day at a stable dose of 10 mg as background therapy. • Atorvastatin is administered at a dose of 80 mg once during the double-blind treatment period of 8 weeks. • Arm 2: The second group of patients receives one subcutaneous injection of 1 mL of a placebo solution, administered in the abdomen every two weeks, with a dose regimen at 150 mg, for a double-blind treatment period of 8 weeks; • Atorvastatin is administered once per day at a stable dose of 10 mg as background therapy. • Atorvastatin is administered at a dose of 80 mg (2 over-encapsulated atorvastatin 40 mg tablets) once during the double-blind treatment period of 8 weeks. • Arm 3: The third group of patients receives one subcutaneous injection of 1 mL of antibody 316P, administered in the abdomen every two weeks, with a dose regimen at 150 mg, for a double-blind treatment period of 8 weeks; • Atorvastatin is administered once per day at a stable dose of 10 mg as background therapy. • Atorvastatin is administered at a dose of 10 mg (1 over-encapsulated atorvastatin 10 mg tablet+1 matching placebo tablet) once during the double-blind treatment period of 8 weeks. Primary and Key Secondary Endpoints Primary Endpoints
The primary efficacy variable is the percent change in calculated LDL-C from baseline to Week 8, which is defined as: 100×(calculated LDL-C value at Week 8-calculated LDL-C value at baseline)/calculated LDL-C value at baseline.
In case of unavailable calculated LDL-C value at Week 8 as defined above, then the last calculated LDL-C value measured during the efficacy period and before the Week 8 time window was used to impute the missing Week 8 calculated LDL-C value (Last Observation Carried Forward [LOCF] procedure). […]

Test [3] concerns male Syrian hamster. The experiment in a line: Study 4: cholesterol lowering effect of 316P alone and with atorvastatin in hamster. The class given is in vivo. Particulars: treatment alone up to the maximal tolerated dose. An excerpt: This is an animal study on the cholesterol lowering effect of 316P, a fully human PCSK9 blocking monoclonal antibody in male Syrian hamster
The aim of this study was to investigate the effect of 316P, a human monoclonal antibody to human PCSK9, alone and in combination with statins on expression of the hepatic LDLR and the resulting effects on serum LDL-C.
The maximal effect on LDL-C (−17/−27/−60%) was seen within 7 days. PK data of 316P are in line with the dose-dependent effect on LDL-C.

These results are taken from US9682013B2, “Pharmaceutical compositions comprising human antibodies to PCSK9” (SANOFI BIOTECHNOLOGY, priority 2011, dated 2017).

Consider `O=C1[C@H](CC[C@H](O)c2ccc(F)cc2)[C@@H](c2ccc(O)cc2)N1c1ccc(F)cc1` [ezetimibe], for which the “total reduction of LDL-C levels” value in test [1] is 27%.

As for `CC(C)c1c(C(=O)Nc2ccccc2)c(-c2ccccc2)c(-c2ccc(F)cc2)n1CC[C@@H](O)C[C@@H](O)CC(=O)O` [atorvastatin, reference compound], the “median reduction from baseline in LDL-C at 8 weeks” value in test [2] was −26.9%. In test [3], the LDL-C entry is given as “did not decrease LDL-C” and the “hepatic LDLR expression” value is recorded as “no effect”.
